The values below come from ChEMBL document CHEMBL4431388, “Molecular docking studies and synthesis of novel bisbenzimidazole derivatives as inhibitors of α-glucosidase” (Bioorg Med Chem, 2016).

For one assay, the system named is Saccharomyces cerevisiae. Briefly: Inhibition of baker's yeast alpha-glucosidase at 300 uM using p-nitrophenyl alpha-D-glucopyranoside as substrate preincubated for 15 mins followed by substrate addition measured for 20 mins by spectrophotometric analysis relative to control.
Assay [1] is described as follows: Inhibition of baker's yeast alpha-glucosidase using p-nitrophenyl alpha-D-glucopyranoside as substrate preincubated for 15 mins followed by substrate addition measured for 20 mins by spectrophotometric analysis. Further details: species or system Saccharomyces cerevisiae.

The term inhibition denotes how much of the control response was suppressed. Read a high inhibition as a strong effect. As usually defined, the IC50 is the concentration needed to halve the response being measured. A low value points to inhibition by little substance.

`NNC(=O)Cn1c(-c2nc3ccccc3n2CC(=O)NN)nc2ccccc21` had an inhibition with Saccharomyces cerevisiae of 45.8%. With `O=[N+]([O-])c1ccc2nc(-c3nc4ccc([N+](=O)[O-])cc4n3Cc3nnc(Nc4ccccc4)s3)n(Cc3nnc(Nc4ccccc4)s3)c2c1`, the inhibition in the assay on Saccharomyces cerevisiae stood at 89.1%. Inhibition in assay [1] was half-maximal at 5270 nM (IC50). `O=[N+]([O-])c1ccc2nc(-c3nc4ccc([N+](=O)[O-])cc4n3Cc3nnc(S)n3-c3ccccc3)n(Cc3nnc(S)n3-c3ccccc3)c2c1` yielded an inhibition in the assay on Saccharomyces cerevisiae of 23.7%. The same measure, in the same setting: the value for `O=[N+]([O-])c1ccc2nc(-c3nc4ccc([N+](=O)[O-])cc4n3Cc3nnc(S)n3Cc3ccccc3)n(Cc3nnc(S)n3Cc3ccccc3)c2c1` was 35.8%.

Molecule `O=C(Cn1c(-c2nc3ccc([N+](=O)[O-])cc3n2CC(=O)NNC(=S)NCc2ccccc2)nc2ccc([N+](=O)[O-])cc21)NNC(=S)NCc1ccccc1` came in with an inhibition with Saccharomyces cerevisiae of 100%. In assay [1], this molecule registered an IC50 of 490 nM. For `O=C(Cn1c(-c2nc3ccccc3n2CC(=O)NNC(=S)NCc2ccccc2)nc2ccccc21)NNC(=S)NCc1ccccc1`, the inhibition in the assay with Saccharomyces cerevisiae was determined as 23.2%. In the case of `NNC(=O)Cn1c(-c2nc3ccc([N+](=O)[O-])cc3n2CC(=O)NN)nc2ccc([N+](=O)[O-])cc21`, in the assay on Saccharomyces cerevisiae, the inhibition came to 100%. The same molecule showed an IC50 in assay [1] of 440 nM.

Take `Sc1nnc(Cn2c(-c3nc4ccccc4n3Cc3nnc(S)n3-c3ccccc3)nc3ccccc32)n1-c1ccccc1`: in the assay with Saccharomyces cerevisiae, the inhibition came to 100%. In addition, the concentration for half-maximal inhibition (IC50) in assay [1] worked out at 3010 nM. Turning to `O=C(Cn1c(-c2nc3ccccc3n2CC(=O)NNC(=S)Nc2ccccc2)nc2ccccc21)NNC(=S)Nc1ccccc1`, the inhibition in the assay with Saccharomyces cerevisiae is 39.6%. Take `O=[N+]([O-])c1ccc2nc(-c3nc4ccc([N+](=O)[O-])cc4n3Cc3nnc(NCc4ccccc4)s3)n(Cc3nnc(NCc4ccccc4)s3)c2c1`: in the assay with Saccharomyces cerevisiae, the inhibition was 48.4%. In the case of `O=C(Cn1c(-c2nc3ccc([N+](=O)[O-])cc3n2CC(=O)NNC(=S)Nc2ccccc2)nc2ccc([N+](=O)[O-])cc21)NNC(=S)Nc1ccccc1`, the inhibition in the assay with Saccharomyces cerevisiae was 100%. The molecule further gave an IC50 in assay [1] of 1240 nM. As for `CCOC(=O)Cn1c(-c2nc3ccc([N+](=O)[O-])cc3n2CC(=O)OCC)nc2ccc([N+](=O)[O-])cc21`, the inhibition in the assay with Saccharomyces cerevisiae came to 85.8%. The molecule further yielded an IC50 in assay [1] of 6690 nM. The corresponding values for `O=[N+]([O-])c1ccc2nc(-c3nc4ccc([N+](=O)[O-])cc4[nH]3)[nH]c2c1` are 100% and 540 nM. Consider `C[C@H]1O[C@H](O[C@H]2[C@H](O)[C@@H](O)[C@@H](O[C@H]3[C@H](O)[C@@H](O)C(O)O[C@@H]3CO)O[C@@H]2CO)[C@H](O)[C@@H](O)[C@@H]1N[C@H]1C=C(CO)[C@@H](O)[C@H](O)[C@H]1O` (stereo partly drawn) [ACARBOSE], for which, in the assay on Saccharomyces cerevisiae, the inhibition amounted to 83.3%. In addition, half-maximal inhibition in assay [1] (IC50) was put at 13300 nM. Consider `c1ccc(Nc2nnc(Cn3c(-c4nc5ccccc5n4Cc4nnc(Nc5ccccc5)s4)nc4ccccc43)s2)cc1`, for which the inhibition in the assay on Saccharomyces cerevisiae was 42.7%.
